This assay has as its target T1, Recombinant human LTC4 synthase (Homo sapiens, UniProt Q16873).
T1 construct: made in house; host or cells: Pichia pastoris ('Piccia pastoralis' [sic])
T1 sequence (Q16873 1-150): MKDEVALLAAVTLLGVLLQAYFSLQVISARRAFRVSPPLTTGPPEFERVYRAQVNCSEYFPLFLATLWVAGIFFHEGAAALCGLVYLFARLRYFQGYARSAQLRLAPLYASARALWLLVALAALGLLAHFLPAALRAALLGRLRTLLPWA
Kind of assay: Biological in vitro assay: LTC4 synthase conversion of LTA4 to LTC4, HTRF detection. In kind it is biochemical. The note with it: for % inhibition: total concentration of title compound in the assay 10 μM. The protocol: In the assay, LTC4 synthase catalyses the reaction where the substrate LTA4 is converted to LTC4. Recombinant human LTC4 synthase is expressed in Piccia pastoralis and the purified enzyme is dissolved in 25 mM tris-buffer pH 7.8 supplemented with 0.1 mM glutathione (GSH) and stored at −80° C. The assay is performed in phosphate buffered saline (PBS) pH 7.4 and 5 mM GSH in 384-well plates.
The following is added chronologically to each well:
1. 48 μL LTC4 synthase in PBS with 5 mM GSH. The total protein concentration in this solution is 0.5 μg/mL. 2. 1 μL inhibitor in DMSO (final concentration 10 μM). 3. Incubation of the plate at room temperature for 10 min. 4. 1 μL LTA4 (final concentration 2.5 μM). 5. Incubation of the plate at room temperature for 5 min. 6. 10 μL of the incubation mixture is analysed using homogenous time resolved fluorescent (HTRF) detection.
(In general: In TR-FRET formats the signal depends on donor and acceptor labels being close together.)

SMILES strings stand for the structures.

For orientation: IC50 means the midpoint of a concentration-inhibition curve. Usually % inhibition stands for the change of the read-out against control, counted positive when it falls.

For the compound `Cc1cc2ncn(-c3ccc(C(=O)c4ccc(N(C)c5ccc(Cl)cc5)cc4)cc3C(=O)O)c2cc1C` [Example 1, 5-{4-[(4-Chlorophenyl)(methyl)amino]benzoyl}-2-(5,6-dimethyl-1-benzimidazolyl)-benzoic acid], the IC50 worked out at 288 nM and the “% inhibition” value is on record as 97%. For `CN(c1ccc(Cl)cc1)c1ccc(C(=O)c2ccc(-n3nncc3-c3cccc(Cl)c3)c(C(=O)O)c2)cc1` [Example 3:2, 5-{4-[(4-Chlorophenyl)(methyl)amino]benzoyl}-2-[5-(3-chlorophenyl)-1,2,3-triazol-1-yl]benzoic acid], the IC50 was 36 nM and the “% inhibition” value stood at 100%. In the same order, the values of `CN(c1ccc(Cl)cc1)c1ccc(C(=O)c2ccc(-n3nncc3-c3ccccc3)c(C(=O)O)c2)cc1` [Example 3:1, 5-{4-[(4-Chlorophenyl)(methyl)amino]benzoyl}-2-(5-phenyl-1,2,3-triazol-1-yl)-benzoic acid] are 154 nM and 100%. For the compound `CN(c1ccc(Cl)cc1)c1ccc(C(=O)c2ccc(-c3nccn3-c3ccccc3)c(C(=O)O)c2)nc1` [Example 9, 5-{5-[(4-Chlorophenyl)(methyl)amino]picolinoyl}-2-(1-phenylimidazol-2-yl)benzoic acid], the concentration for half-maximal inhibition (IC50) came out at 217 nM.

Regarding `CN(c1ccc(Cl)cc1)c1ccc(C(=O)c2ccc(-n3cc(-c4ccccc4)nn3)c(C(=O)O)c2)cc1` [Example 2:1, 5-{4-[(4-Chlorophenyl)(methyl)amino]benzoyl}-2-(4-phenyl-1,2,3-triazol-1-yl)-benzoic acid], the IC50 worked out at 326 nM and the “% inhibition” value was 99%. For `CN(c1ccc(Cl)cc1)c1ccc(C(=O)c2ccc(-n3cc(-c4cccc(Cl)c4)nn3)c(C(=O)O)c2)cc1` [Example 2:2, 5-{4-[(4-Chlorophenyl)(methyl)amino]benzoyl}-2-[4-(3-chlorophenyl)-1,2,3-triazol-1-yl]benzoic acid], in that order: 214 nM and 99%.

These data come from patent publication US20120035217A1, “Bis Aromatic Compounds for Use as LTC4 Synthase Inhibitors” (BIOLIPOX AB, priority 2009, published 2012).
